# Assay results from US9695426B2, “Biofuel production by recombinant microorganisms” (The Regents of the University of California, priority 2007, dated 2017).
# B1: TdcB: E. coli's catabolic threonine dehydratase (protein, UniProt P0AGF6 1-329, looked up)
# L-threonine dehydratase …: MHITYDLPVAIDDIIEAKQRLAGRIYKTGMPRSNYFSERCKGEIFLKFENMQRTGSFKIRGAFNKLSSLTDAEKRKGVVACSAGNHAQGVSLSCAMLGIDGKVVMPKGAPKSKVAATCDYSAEVVLHGDNFNDTIAKVSEIVEMEGRIFIPPYDDPKVIAGQGTIGLEIMEDLYDVDNVIVPIGGGGLIAGIAVAIKSINPTIRVIGVQSENVHGMAASFHSGEITTHRTTGTLADGCDVSRPGNLTYEIVRELVDDIVLVSEDEIRNSMIALIQRNKVVTEGAGALACAALLSGKLDQYIQNRKTVSIISGGNIDLSRVSQITGFVDA
# What was measured:
# [1] = tested on: native 1-butanol producers; conditions: cited from earlier work
# [2] = tested on: E. coli culture expressing kivd; assay: Alcohol productions with the supply of 2-keto acids; type: cell-based; conditions: 2-keto acid added to E. coli culture expressing kivd
# Description: The addition of various 2-keto acids (see Table 13) to the E. coli culture expressing kivd confirmed the specific production of the corresponding alcohols by 2- to 23-fold.
# [3] = biological target: AHAS I (Escherichia coli, UniProt P08142); conditions: read-out: Km value for 2-ketobutyrate; cited from earlier work
# Chain of AHAS I (P0ADF8 whole entry): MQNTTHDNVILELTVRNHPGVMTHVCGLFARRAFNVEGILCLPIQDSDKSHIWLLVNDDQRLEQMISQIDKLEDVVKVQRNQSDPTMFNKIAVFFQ
# Chain of AHAS I (P08142 whole entry): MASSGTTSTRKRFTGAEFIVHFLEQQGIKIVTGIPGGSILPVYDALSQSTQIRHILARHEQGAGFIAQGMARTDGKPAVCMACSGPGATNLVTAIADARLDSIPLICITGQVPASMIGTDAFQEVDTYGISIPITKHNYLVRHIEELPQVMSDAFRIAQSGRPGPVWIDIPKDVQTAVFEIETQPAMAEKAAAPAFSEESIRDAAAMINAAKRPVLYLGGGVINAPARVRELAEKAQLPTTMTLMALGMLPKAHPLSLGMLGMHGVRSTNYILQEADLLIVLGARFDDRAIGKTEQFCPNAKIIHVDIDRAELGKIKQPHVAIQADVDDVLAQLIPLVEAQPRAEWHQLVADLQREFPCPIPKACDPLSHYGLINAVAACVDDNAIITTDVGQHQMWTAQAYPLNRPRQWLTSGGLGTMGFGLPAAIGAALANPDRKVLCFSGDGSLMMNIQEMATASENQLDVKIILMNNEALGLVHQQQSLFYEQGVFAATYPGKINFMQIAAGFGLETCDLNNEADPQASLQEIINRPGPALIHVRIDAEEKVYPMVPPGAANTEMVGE
# [4] = biological target: E. coli IlvA (Escherichia coli, UniProt P04968); conditions: purified E. coli IlvA in the absence of isoleucine; cited from earlier work
# Chain of E. coli IlvA (P04968 whole entry): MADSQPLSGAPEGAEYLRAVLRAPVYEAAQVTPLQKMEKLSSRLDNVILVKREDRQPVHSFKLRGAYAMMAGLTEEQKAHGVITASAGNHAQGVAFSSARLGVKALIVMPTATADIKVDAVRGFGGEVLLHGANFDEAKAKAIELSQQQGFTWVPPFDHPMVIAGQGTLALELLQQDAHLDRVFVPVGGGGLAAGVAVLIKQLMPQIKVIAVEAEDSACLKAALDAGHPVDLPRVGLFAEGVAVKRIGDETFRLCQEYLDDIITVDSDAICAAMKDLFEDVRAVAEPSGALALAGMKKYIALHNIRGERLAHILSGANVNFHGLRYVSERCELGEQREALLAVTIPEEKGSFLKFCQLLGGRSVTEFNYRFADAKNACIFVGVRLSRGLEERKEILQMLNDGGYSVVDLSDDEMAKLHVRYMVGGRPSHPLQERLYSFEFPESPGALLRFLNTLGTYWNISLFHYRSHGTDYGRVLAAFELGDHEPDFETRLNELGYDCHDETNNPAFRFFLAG
# [5] = biological target: E. coli TdcB (Escherichia coli, UniProt P0AGF6); conditions: E. coli TdcB in the absence of AMP; cited from earlier work
# [6] = tested on: E. coli BW25113; assay: propanol and butanol production via the threonine pathway with alternative enzymes; type: cell-based; conditions: BW ΔmetA, Δtdh, ΔilvB, ΔilvI; tdcB with leuABCD on pCS20; 72 hours
# Method: For some alcohol fermentation experiments, single colonies were picked from LB plates and inoculated into 3 ml of LB media with the appropriate antibiotics (ampicillin 100 μg/ml, kanamycin 50 μg/ml, and spectinomycin 50 μg/ml). The overnight culture grown in LB at 37° C. in a rotary shaker (250 rpm) was then inoculated (1% vol/vol) into 20 ml of M9 medium (6 g Na2HPO4, 3 g KH2PO4, 0.5 g NaCl, 1 g NH4Cl, 1 mM MgSO4, 10 mg vitamin B1 and 0.1 mM CaCl2 per liter of water) containing 30 g/L glucose, 5 g/L yeast extract, appropriate antibiotics, and 1000× Trace Metal Mix A5 (2.86 g H3BO3, 1.81 g MnCl2.4H2O, 0.222 g ZnSO4.7H2O, 0.39 g Na2MoO4.2H2O, 0.079 g CuSO4.5H2O, 49.4 mg Co(NO3)2.6H2O per liter water) in 250 ml conical flask. The culture was allowed to grow at 37° C. in a rotary shaker (250 rpm) to an OD600 of 0.4˜0.6, then 12 ml of the culture was transferred to a 250 ml screw capped conical flask and induced with 1 mM IPTG. The induced cultures were grown at 30° C. in a rotary shaker (240 rpm). Samples were taken throughout the next three to four days by opening the screwed caps of the flasks, and culture broths were either centrifuged or filtered to retrieve the supernatant. […]
# Metabolite Detections. The produced alcohol compounds were quantified by a gas chromatograph (GC) equipped with flame ionization detector. […]
molecule,measurement,setting,value
CCCCO [1-butanol],tolerated 1-butanol concentration,[1],up to 2%
CCC(=O)C(=O)O [2-ketobutyrate],Product 1-butanol,[2],492 µM
same,Product 1-propanol,[2],2138 µM
same,Product 2-methyl-1-butanol,[2],1315 µM
same,Product 2-phenylethanol,[2],26 µM
same,Product isobutanol,[2],98 µM
same,Km,[3],~5 mM
C[C@@H](O)[C@H](N)C(=O)O [threonine],Km,[4],8 mM
same,Km,[5],20 mM
B1,lower production of both target alcohols compared to IlvA,[6],70%
